Measured values: article PMC11002876, “KcsA-Kv1.x chimeras with complete ligand-binding sites provide improved predictivity for screening selective Kv1.x blockers” (The Journal of Biological Chemistry, 2024)
Where no end group is shown, it is not given here.

Columns and labels:
[1] = test system: human Kv1.3 channel (hKv1.3); type: cell-based; conditions: TEA+ 10 mM, positive control; human lymphocytes
Experimental: (§1) Human Kv1.3 currents were recorded from activated peripheral blood mononuclear cells (see below) 3 to 4 days after activation. Heparinized human peripheral venous blood was obtained from healthy volunteers. Mononuclear cells were separated through Histopaque-1077 density gradient centrifugation. Collected cells were washed twice with Ca^2+- and Mg^2+-free Hanks’ solution containing 25 mM Hepes buffer, pH 7.4. Cells were cultured for 3 to 4 days in 24-well culture plates in a 5% CO2 incubator at 37 °C, in RPMI 1640 medium supplemented with 10% fetal calf serum (Sigma-Aldrich), 100 μg/ml penicillin, 100 μg/ml streptomycin, and 2 mM L-glutamine (density, 0.5 × 10^6 cells per ml). Phytohemagglutinin A (Sigma-Aldrich) was added to the medium at 10 μg/ml to amplify the Kv1.3 expression. Cells were washed gently twice with 2 ml of ECS for the patch-clamp experiments.
(§2) Conventional whole-cell patch-clamp electrophysiology was used to record ionic currents. Micropipettes were pulled from GC150F-7.5 borosilicate capillaries (Harvard Apparatus) with tip diameters between 0.5 and 1 μm resulting in a tip resistance of 2 to 8 MΩ in the extracellular (bath) solution. All measurements were carried out by using Axopatch 200B amplifier connected to a personal computer using Axon Digidata 1550A data acquisition hardware and Pclamp10.7 software (https://support.moleculardevices.com/s/article/Axon-pCLAMP-10-Electrophysiology-Data-Acquisition-Analysis-Software-Download-Page). The holding potential was −120 mV. Records were discarded when leak at the holding potential was >10% of peak current at the test potential. Experiments were performed at room temperature (20–24 °C). Before analysis, whole-cell current traces were corrected for ohmic leakage and digitally filtered with a three-point boxcar smoothing filter.
Solutions: all salts and components of the solutions were purchased from Sigma Aldrich. […]
Native peptides, phage-expressed peptides, and positive controls used for them were dissolved in ECS supplemented with 0.1 mg/ml bovine serum albumin (BSA; Sigma-Aldrich Hungary). Bath perfusion around the measured cell with different extracellular solutions was achieved using a gravity flow micro perfusion system using a rate of 0.5 ml/min. […]
(§3) Voltage protocols: For measurement of Kv1.1 to 1.3 currents, voltage steps to +50 mV were applied from a holding potential of −120 mV and the peak current was measured every 15 s. […] The remaining current fraction at a given molar concentration was calculated as I/I0, where I0 is the peak current in the absence and I is the peak current at equilibrium block or […] after ∼2 min perfusion by the investigated peptide/phage.

[2] = test system: human Kv1.3 channel (hKv1.3); conditions: read-out: IC50 on Kv1.3; positive control applied at a concentration equivalent to its IC50; no reference given; cited from earlier work
Experimental: (§4) Voltage protocols: For measurement of Kv1.1 to 1.3 currents, voltage steps to +50 mV were applied from a holding potential of −120 mV and the peak current was measured every 15 s. For Kv1.3 currents, 15-ms-long depolarizing pulses were applied. For Kv1.1, 50-ms-long–activating stimuli were used. Kv1.2 currents were evoked by 200-ms-long pulses. […] The remaining current fraction at a given molar concentration was calculated ...

[3] = test system: human Kv1.1 channel (hKv1.1); conditions: read-out: IC50 on Kv1.1; positive control applied at a concentration equivalent to its IC50; no reference given; cited from earlier work
Experimental: as §4

[4] = test system: human Kv1.2 channel (hKv1.2); conditions: positive control applied at a concentration equivalent to its IC50; no reference given; cited from earlier work
Experimental: as §4

[5] = target: T1, KcsA-Kv1.3 T-only chimera (Streptomyces lividans, UniProt P0A334, A54D/A57S/G53D/G56T/I60S/L59F/Q58G/R52A/R64D/T61S/Y62I); experiment: Phage ELISA-binding assay, KcsA-Kv1.3 T-only; design: species or system human Kv1.3 turret in Streptomyces lividans KcsA; conditions: toxin displayed on M13 phage
T1 construct: made in house; host or cells: E. coli XL1-Blue (pQE30)
T1 sequence (P0A334 1-160 R52A/G53D/A54D/G56T/A57S/Q58G/L59F/I60S/T61S/Y62I/R64D): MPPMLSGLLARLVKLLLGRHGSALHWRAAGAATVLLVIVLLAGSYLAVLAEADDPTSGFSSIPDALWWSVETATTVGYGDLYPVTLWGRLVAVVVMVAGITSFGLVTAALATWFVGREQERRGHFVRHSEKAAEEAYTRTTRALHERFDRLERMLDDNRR
Experimental: Phage display test solutions were prepared according to routine phage display protocols ([62]). Phosphorylated and annealed oligonucleotides encoding the peptide construct were ligated into linearized pAS62 phagemid vector (https://patents.google.com/patent/WO2022144560A1/en) at a vector/insert ratio of 1:3. The final phagemid construct harbored a signal sequence followed by the peptide of interest, a linker sequence ([…]), and the C-terminal part of the P3 coat protein (amino acids: 216-424 of NP_510891.1). […] The particle concentrations of phage solutions were determined using a NanoDrop One C (Thermo Fisher Scientific) spectrophotometer. The phage particle concentration was assessed according to the formula: (A268–A320) × 5 × 10^12 particles/ml ([62]). […]
Phage stock solutions were diluted to working concentration with phage resuspension buffer supplemented with 2 mM DDM. […] Following blocking, the wells were washed 4× with washing buffer (300 μl TBS-Tween, 0.1% v/v) using a Wellwash Versa microplate washer (Thermo Fisher Scientific); then 50 μl phage solution (in TBS-BSA-Tween, 0.1% v/v, 2 mM DDM) at determined phage concentration was added to the wells and incubated for 1 h at room temperature on a horizontal shaker. […]

[6] = test system: human Kv1.3 channel (hKv1.3); experiment: Whole-cell patch-clamp of phage-displayed toxins, hKv1.3 in human lymphocytes; type: cell-based; conditions: perfusion concentration; phage-displayed toxin; experimentally titrated; N = 3
Experimental: as §1, §2
Solutions: all salts and components of the solutions were purchased from Sigma Aldrich. The extracellular (bath) solution (ECS) contained 145 mM NaCl, 5 mM KCl, 2.5 mM CaCl2, 1 mM MgCl2, 10 mM Hepes, and 5.5 mM glucose (pH 7.35 with NaOH), while the intracellular (pipette) solution (ICS) contained 140 mM KF, 2 mM MgCl2, 1 mM CaCl2, 11 mM EGTA, and 10 mM Hepes (pH 7.22 with KOH). The osmolarity of the ECS and ICS were 302 mOsM.
Native peptides, phage-expressed peptides, and positive controls used for them were dissolved in ECS supplemented with 0.1 mg/ml bovine serum albumin (BSA; Sigma-Aldrich Hungary). Bath perfusion around the measured cell with different extracellular solutions was achieved using a gravity flow micro perfusion system using a rate of 0.5 ml/min. Excess fluid was removed continuously.
as §3, with “s. For Kv1.3 currents, 15-ms-long depolarizing pulses were applied. For Kv1.1, 50-ms-long–activating stimuli were used. Kv1.2 currents were evoked by 200-ms-long pulses.” for “s.”
Phage display test solutions were prepared according to routine phage display protocols ([62]). Phosphorylated and annealed oligonucleotides encoding the peptide construct were ligated into linearized pAS62 phagemid vector (https://patents.google.com/patent/WO2022144560A1/en) at a vector/insert ratio of 1:3. The final phagemid construct harbored a signal sequence followed by the peptide of interest, a linker sequence ([…]), and the C-terminal part of the P3 coat protein (amino acids: 216-424 of NP_510891.1). Chemically competent XL1-Blue E. coli cells (2022249, Agilent) were transformed with the ligation product and then streaked onto ampicillin (100 μg/ml) containing LB/Amp plates and incubated for 16 h at 37 °C.

[7] = test system: T+F chimera variant mutated at T84; experiment: Phage binding to T84-mutated T+F chimera, pilot experiment; conditions: pilot experiment (not shown)
Experimental: Phage stock solutions were diluted to working concentration with phage resuspension buffer supplemented with 2 mM DDM. For protein immobilization, the following amounts were used in a final volume of 50 μl/well: wt KcsA, 0.1 μg; KcsA-Kv1.1 T-only, 0.005 μg; KcsA-Kv1.1 T+F, 0.02 μg; KcsA-Kv1.2 T-only, 0.01 μg; KcsA-Kv1.2 T+F, 0.1 μg; KcsA-Kv1.3 T-only, 0.01 μg; and KcsA-Kv1.3 T+F, 0.1 μg. Protein samples were diluted in 50 μl of storage buffer (20 mM Tris pH8.0, 300 mM KCl, 2 mM DDM) and were added to the designated wells of a Pierce Clear, 96-Well Nickel Coated Plate (15442, Thermo Fisher Scientific), then incubated for 1 h at room temperature on a horizontal shaker at 130 rpm. The plate was blocked for 1 h at room temperature with 180 μl/well TBS-BSA supplemented with 1 mM DDM. Following blocking, the wells were washed 4× with washing buffer (300 μl TBS-Tween, 0.1% v/v) using a Wellwash Versa microplate washer (Thermo Fisher Scientific); then 50 μl phage solution (in TBS-BSA-Tween, 0.1% v/v, 2 mM DDM) at determined phage concentration was added to the wells and incubated for 1 h at room temperature on a horizontal shaker. […] The light absorbance signal was read at 450 nm with Byonoy absorbance 96 plate reader (Byonoy GmbH).

## CC[N+](CC)(CC)CC [TEA+, tetraethylammonium]
[1]
  inhibition of Kv1.3 current: approximately 50%
[2]
  IC50: 10000 µM
[3]
  IC50: 300 µM

## charybdotoxin
[4]
  IC50: 0.014 µM

## HgTX1-phage: HgTx1 fused to the P3 coat protein of M13 phage with an eight amino acid linker (TVIDVKCTSPKQCLPPCKAQFGIRAGAKCMNGKCKCYPH-{GSASSATR-M13 P3 coat protein (216-424)}; not fully specified; ends and bridges not checked)
[5]
  phage binding to KcsA-Kv1.3 T-only, in words: weaker binding
[6]
  phage concentration giving approximate 50% block of hKv1.3 current: ~1.8 x 10^12 particle/ml

## MTX-expressing phages: MTX displayed on M13 phage (VSCTGSKDCYAPCRKQTGCPNAKCINKSCKCYGC-{GSASSATR-M13 P3 coat protein (216-424)}; not fully specified; ends and bridges not checked)
[7]
  binding to T+F chimera variant mutated at T84, in words: did not diminish when T84 was mutated
